From patent US11753407B2, “Compounds for treating spinal muscular atrophy” (PTC Therapeutics, Inc., priority 2012, dated 2023)

Columns and labels:
[1] = tested on: SMN2 minigene mRNA (SMN2-A minigene) in HEK293H cells; test: SMN2 minigene mRNA splicing RT-qPCR assay in cultured cells; type: cell-based, human; conditions: Homo sapiens, HEK293-H; concentration increasing full length SMN2 mRNA 1.5-fold relative to vehicle-treated cells; HEK293H cells with SMN2-A minigene, 24 hours, 7-point concentration data; read-out: EC1.5x for production of full length SMN2 mRNA
Method in brief: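 Potency reflects the concentration that lifts full-length SMN2 minigene mRNA 1.5-fold above vehicle in stably transfected HEK293H cells after 24 h of treatment. Transcript abundance came from RT-qPCR as (1+E)^−Ct, normalized to GAPDH; endogenous SMN1/SMN2 are not detected.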

[2] = tested on: Smn protein in SMA patient fibroblast cells (GM03813); test: Smn protein assay in cultured cells (SMN HTRF); type: cell-based, human; conditions: SMA patient fibroblast cells, 48 hours; for EC1.5x for Smn protein expression: 7-point concentration curve, SMN HTRF, concentration producing 1.5 times Smn protein vs DMSO vehicle control; for maximum fold (Fold) increase of Smn protein: 7-point concentration data, fold relative to vehicle control
Method in brief: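 Smn protein abundance in treated SMA fibroblasts was measured by HTRF after 48 h compound exposure. The reported EC1.5× is the concentration producing 1.5 times vehicle Smn levels.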

In the case of `CCN1CCC(c2cn3c(=O)cc(-c4ccc5nc(C)cn5c4)nc3cn2)CC1` [Compound 580, 7-(1-ethylpiperidin-4-yl)-2-(2-methylimidazo[1,2-a]pyridin-6-yl)-4H-pyrazino[1,2-a]pyrimidin-4-one], the melting point is reported as 255 to 258 °C, the EC (1.5-fold increase) [1] is reported as less than 0.1 µM and the “EC1.5x for Smn protein expression” value [2] is reported as “*** (an EC1.5× between >0.3 μM and ≤1 μM is indicated by three stars (***))”. The “maximum fold (Fold) increase of Smn protein” value (from here on “maximum fold (Fold) increase”) [2] was “***** (a fold increase >1.65 is indicated by five stars (*****))”.
In the case of `Cc1cn2cc(-c3cc(=O)n4cc(C5CCN(CCO)CC5)ncc4n3)ccc2n1` [Compound 581, 7-[1-(2-hydroxyethyl)piperidin-4-yl]-2-(2-methylimidazo[1,2-a]pyridin-6-yl)-4H-pyrazino[1,2-a]pyrimidin-4-one], the melting point is reported as 250 to 252 °C, the EC (1.5-fold increase) [1] is reported as 0.1 to 0.3 µM and the “EC1.5x for Smn protein expression” value [2] is reported as “*** (an EC1.5× between >0.3 μM and ≤1 μM is indicated by three stars (***))”. The “maximum fold (Fold) increase” value [2] was “***** (a fold increase >1.65 is indicated by five stars (*****))”.
For `Cc1cn2nc(-c3cc(=O)n4cc(N5CCC(N(C)CCO)CC5)cc(C)c4n3)cc2c(C)n1` [Compound 582, 2-(4,6-dimethylpyrazolo[1,5-a]pyrazin-2-yl)-7-{4-[(2-hydroxyethyl)(methyl)amino]piperidin-1-yl}-9-methyl-4H-pyrido[1,2-a]pyrimidin-4-one], the melting point was 250 to 259 °C, the EC (1.5-fold increase) [1] was less than 0.1 µM and the “EC1.5x for Smn protein expression” value [2] was “**** (an EC1.5x≤0.3 μM is indicated by four stars (****))”. For the same molecule, the “maximum fold (Fold) increase” value [2] was “***** (a fold increase >1.65 is indicated by five stars (*****))”.
For `CCCNC1CCN(c2cc(C)c3nc(-c4cc5c(C)nc(C)cn5n4)cc(=O)n3c2)CC1` [Compound 583, 2-(4,6-dimethylpyrazolo[1,5-a]pyrazin-2-yl)-9-methyl-7-[4-(propylamino)piperidin-1-yl]-4H-pyrido[1,2-a]pyrimidin-4-one], the melting point was 231 to 241 °C, the EC (1.5-fold increase) [1] was less than 0.1 µM and the “EC1.5x for Smn protein expression” value [2] was “**** (an EC1.5x≤0.3 μM is indicated by four stars (****))”. For the same molecule, the “maximum fold (Fold) increase” value [2] was “***** (a fold increase >1.65 is indicated by five stars (*****))”.
In the case of `Cc1cn2nc(-c3cc(=O)n4cc(N5CCC(C)(N)CC5)ccc4n3)cc2c(C)n1` [Compound 584, 7-(4-amino-4-methylpiperidin-1-yl)-2-(4,6-dimethylpyrazolo[1,5-a]pyrazin-2-yl)-4H-pyrido[1,2-a]pyrimidin-4-one], the melting point is reported as 200 to 203 °C, the EC (1.5-fold increase) [1] is reported as less than 0.1 µM and the “EC1.5x for Smn protein expression” value [2] is reported as “**** (an EC1.5x≤0.3 μM is indicated by four stars (****))”. The “maximum fold (Fold) increase” value [2] was “***** (a fold increase >1.65 is indicated by five stars (*****))”.
In the case of `Cn1cc2cc(-c3cc(=O)n4cc(N5CCNCC5)ncc4n3)ccc2n1` [Compound 586, 2-(2-methyl-2H-indazol-5-yl)-7-(piperazin-1-yl)-4H-pyrazino[1,2-a]pyrimidin-4-one], the melting point is reported as 160 to 162 °C, the EC (1.5-fold increase) [1] is reported as 0.1 to 0.3 µM and the “EC1.5x for Smn protein expression” value [2] is reported as “**** (an EC1.5x≤0.3 μM is indicated by four stars (****))”. For the same molecule, the “maximum fold (Fold) increase” value [2] was “***** (a fold increase >1.65 is indicated by five stars (*****))”.
With `CCN1CCN(c2cn3c(=O)cc(-c4ccc5nn(C)cc5c4)nc3cn2)CC1` [Compound 590, 7-(4-ethylpiperazin-1-yl)-2-(2-methyl-2H-indazol-5-yl)-4H-pyrazino[1,2-a]pyrimidin-4-one] the melting point was 214 to 216 °C, the EC (1.5-fold increase) [1] was 0.3 to 1 µM and the “EC1.5x for Smn protein expression” value [2] was “** (an EC1.5× between >1 μM and ≤3 μM is indicated by two stars (**))”. The “maximum fold (Fold) increase” value [2] was “**** (a fold increase between >1.5 and ≤1.65 is indicated by four stars (****))”.
In the case of `Cn1cc2cc(-c3cc(=O)n4cc(N5CCN(CCO)CC5)ncc4n3)ccc2n1` [Compound 591, 7-[4-(2-hydroxyethyl)piperazin-1-yl]-2-(2-methyl-2H-indazol-5-yl)-4H-pyrazino[1,2-a]pyrimidin-4-one], the melting point is reported as 200 to 202 °C, the EC (1.5-fold increase) [1] is reported as 0.3 to 1 µM and the “EC1.5x for Smn protein expression” value [2] is reported as “** (an EC1.5× between >1 μM and ≤3 μM is indicated by two stars (**))”. The “maximum fold (Fold) increase” value [2] was “**** (a fold increase between >1.5 and ≤1.65 is indicated by four stars (****))”.
In the case of `Cc1cn2cc(-c3cc(=O)n4cc(C5CCN(C)CC5)ncc4n3)cc(C)c2n1` [Compound 592, 2-(2,8-dimethylimidazo[1,2-a]pyridin-6-yl)-7-(1-methylpiperidin-4-yl)-4H-pyrazino[1,2-a]pyrimidin-4-one], the melting point is reported as 249 to 251 °C, the EC (1.5-fold increase) [1] is reported as 0.1 to 0.3 µM and the “EC1.5x for Smn protein expression” value [2] is reported as “*** (an EC1.5× between >0.3 μM and ≤1 μM is indicated by three stars (***))”. For the same molecule, the “maximum fold (Fold) increase” value [2] was “***** (a fold increase >1.65 is indicated by five stars (*****))”.
For `CCN1CCC(c2cn3c(=O)cc(-c4cc(C)c5nc(C)cn5c4)nc3cn2)CC1` [Compound 593, 2-(2,8-dimethylimidazo[1,2-a]pyridin-6-yl)-7-(1-ethylpiperidin-4-yl)-4H-pyrazino[1,2-a]pyrimidin-4-one], the melting point was 242 to 244 °C, the EC (1.5-fold increase) [1] was less than 0.1 µM and the “EC1.5x for Smn protein expression” value [2] was “**** (an EC1.5x≤0.3 μM is indicated by four stars (****))”. The “maximum fold (Fold) increase” value [2] was “***** (a fold increase >1.65 is indicated by five stars (*****))”.
For `Cc1cn2cc(-c3cc(=O)n4cc(C5CCN(CCO)CC5)ncc4n3)cc(C)c2n1` [Compound 594, 2-(2,8-dimethylimidazo[1,2-a]pyridin-6-yl)-7-[1-(2-hydroxyethyl)piperidin-4-yl]-4H-pyrazino[1,2-a]pyrimidin-4-one], the melting point was 242 to 244 °C, the EC (1.5-fold increase) [1] was 0.1 to 0.3 µM and the “EC1.5x for Smn protein expression” value [2] was “*** (an EC1.5× between >0.3 μM and ≤1 μM is indicated by three stars (***))”. The “maximum fold (Fold) increase” value [2] was “**** (a fold increase between >1.5 and ≤1.65 is indicated by four stars (****))”.
For `Cc1cn2cc(-c3cc(=O)n4cc(C5CCN(C(C)C)CC5)ncc4n3)cc(Cl)c2n1` [Compound 595, 2-(8-chloro-2-methylimidazo[1,2-a]pyridin-6-yl)-7-[1-(propan-2-yl)piperidin-4-yl]-4H-pyrazino[1,2-a]pyrimidin-4-one], the melting point was 243 to 245 °C, the EC (1.5-fold increase) [1] was less than 0.1 µM and the “EC1.5x for Smn protein expression” value [2] was “**** (an EC1.5x≤0.3 μM is indicated by four stars (****))”. For the same molecule, the “maximum fold (Fold) increase” value [2] was “**** (a fold increase between >1.5 and ≤1.65 is indicated by four stars (****))”.
With `CCNC1CCN(c2cc(C)c3nc(-c4cc5c(C)nc(C)cn5n4)cc(=O)n3c2)CC1` [Compound 596, 2-(4,6-dimethylpyrazolo[1,5-a]pyrazin-2-yl)-7-[4-(ethylamino)piperidin-1-yl]-9-methyl-4H-pyrido[1,2-a]pyrimidin-4-one] the melting point was 228 to 236 °C, the EC (1.5-fold increase) [1] was less than 0.1 µM and the “EC1.5x for Smn protein expression” value [2] was “**** (an EC1.5x≤0.3 μM is indicated by four stars (****))”. For the same molecule, the “maximum fold (Fold) increase” value [2] was “**** (a fold increase between >1.5 and ≤1.65 is indicated by four stars (****))”.
In the case of `Cc1cn2nc(-c3cc(=O)n4cc(N5CCC(N(CCO)CCO)CC5)cc(C)c4n3)cc2c(C)n1` [Compound 597, 7-{4-[bis(2-hydroxyethyl)amino]piperidin-1-yl}-2-(4,6-dimethylpyrazolo[1,5-a]pyrazin-2-yl)-9-methyl-4H-pyrido[1,2-a]pyrimidin-4-one], the melting point is reported as 218 to 227 °C, the EC (1.5-fold increase) [1] is reported as 0.1 to 0.3 µM and the “EC1.5x for Smn protein expression” value [2] is reported as “*** (an EC1.5× between >0.3 μM and ≤1 μM is indicated by three stars (***))”. For the same molecule, the “maximum fold (Fold) increase” value [2] was “**** (a fold increase between >1.5 and ≤1.65 is indicated by four stars (****))”.
For `Cc1nc2ccc(-c3cc(=O)n4nc(C5CCN(CCO)CC5)ccc4n3)cc2o1` [Compound 598, 7-[1-(2-hydroxyethyl)piperidin-4-yl]-2-(2-methyl-1,3-benzoxazol-6-yl)-4H-pyrimido[1,2-b]pyridazin-4-one], the melting point was 205 to 207 °C, the EC (1.5-fold increase) [1] was 0.1 to 0.3 µM and the “EC1.5x for Smn protein expression” value [2] was “*** (an EC1.5× between >0.3 μM and ≤1 μM is indicated by three stars (***))”. For the same molecule, the “maximum fold (Fold) increase” value [2] was “***** (a fold increase >1.65 is indicated by five stars (*****))”.
For `Cc1cn2cc(-c3cc(=O)n4cc(C5CCN(CCO)CC5)ncc4n3)cc(Cl)c2n1` [Compound 599, 2-(8-chloro-2-methylimidazo[1,2-a]pyridin-6-yl)-7-[1-(2-hydroxyethyl)piperidin-4-yl]-4H-pyrazino[1,2-a]pyrimidin-4-one], the melting point was 266 to 268 °C, the EC (1.5-fold increase) [1] was less than 0.1 µM and the “EC1.5x for Smn protein expression” value [2] was “**** (an EC1.5x≤0.3 μM is indicated by four stars (****))”. The “maximum fold (Fold) increase” value [2] was “***** (a fold increase >1.65 is indicated by five stars (*****))”.
For `Cc1cn2nc(-c3cc(=O)n4cc(C5CCN(C6COC6)CC5)ccc4n3)cc2c(C)n1` [Compound 600, 2-(4,6-dimethylpyrazolo[1,5-a]pyrazin-2-yl)-7-[1-(oxetan-3-yl)piperidin-4-yl]-4H-pyrido[1,2-a]pyrimidin-4-one], the melting point was 150 to 152 °C, the EC (1.5-fold increase) [1] was 0.1 to 0.3 µM and the “EC1.5x for Smn protein expression” value [2] was “** (an EC1.5× between >1 μM and ≤3 μM is indicated by two stars (**))”. For the same molecule, the “maximum fold (Fold) increase” value [2] was “**** (a fold increase between >1.5 and ≤1.65 is indicated by four stars (****))”.
